Legend:
[1] = target: T1, 3-phosphoinositide-dependent protein kinase 1 (Homo sapiens, UniProt O15530)
T1 sequence (O15530 whole entry): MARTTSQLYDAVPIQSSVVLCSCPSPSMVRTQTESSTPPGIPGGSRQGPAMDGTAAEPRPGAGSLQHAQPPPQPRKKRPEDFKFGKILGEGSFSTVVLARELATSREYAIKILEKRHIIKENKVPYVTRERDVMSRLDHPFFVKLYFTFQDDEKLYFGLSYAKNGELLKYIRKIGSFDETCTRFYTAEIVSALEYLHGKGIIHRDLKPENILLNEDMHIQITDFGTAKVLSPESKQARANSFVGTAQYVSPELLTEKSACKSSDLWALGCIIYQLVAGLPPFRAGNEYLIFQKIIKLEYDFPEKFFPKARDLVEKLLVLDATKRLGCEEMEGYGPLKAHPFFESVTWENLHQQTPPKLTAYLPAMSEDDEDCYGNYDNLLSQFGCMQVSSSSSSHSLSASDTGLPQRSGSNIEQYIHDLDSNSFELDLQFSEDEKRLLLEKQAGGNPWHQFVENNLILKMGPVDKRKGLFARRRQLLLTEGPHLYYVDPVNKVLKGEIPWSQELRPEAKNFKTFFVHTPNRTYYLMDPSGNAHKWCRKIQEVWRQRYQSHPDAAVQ
Description: Inhibition of His-tagged-truncated human PDK1 preincubated with substrate biotinylated-AKT3 for 30 mins measured after 3 hrs by Scintillation proximity assay

[2] = target: T2, Tyrosine-protein kinase JAK3 (Homo sapiens, UniProt P52333); assay: Inhibition of JAK3
T2 sequence (P52333 whole entry): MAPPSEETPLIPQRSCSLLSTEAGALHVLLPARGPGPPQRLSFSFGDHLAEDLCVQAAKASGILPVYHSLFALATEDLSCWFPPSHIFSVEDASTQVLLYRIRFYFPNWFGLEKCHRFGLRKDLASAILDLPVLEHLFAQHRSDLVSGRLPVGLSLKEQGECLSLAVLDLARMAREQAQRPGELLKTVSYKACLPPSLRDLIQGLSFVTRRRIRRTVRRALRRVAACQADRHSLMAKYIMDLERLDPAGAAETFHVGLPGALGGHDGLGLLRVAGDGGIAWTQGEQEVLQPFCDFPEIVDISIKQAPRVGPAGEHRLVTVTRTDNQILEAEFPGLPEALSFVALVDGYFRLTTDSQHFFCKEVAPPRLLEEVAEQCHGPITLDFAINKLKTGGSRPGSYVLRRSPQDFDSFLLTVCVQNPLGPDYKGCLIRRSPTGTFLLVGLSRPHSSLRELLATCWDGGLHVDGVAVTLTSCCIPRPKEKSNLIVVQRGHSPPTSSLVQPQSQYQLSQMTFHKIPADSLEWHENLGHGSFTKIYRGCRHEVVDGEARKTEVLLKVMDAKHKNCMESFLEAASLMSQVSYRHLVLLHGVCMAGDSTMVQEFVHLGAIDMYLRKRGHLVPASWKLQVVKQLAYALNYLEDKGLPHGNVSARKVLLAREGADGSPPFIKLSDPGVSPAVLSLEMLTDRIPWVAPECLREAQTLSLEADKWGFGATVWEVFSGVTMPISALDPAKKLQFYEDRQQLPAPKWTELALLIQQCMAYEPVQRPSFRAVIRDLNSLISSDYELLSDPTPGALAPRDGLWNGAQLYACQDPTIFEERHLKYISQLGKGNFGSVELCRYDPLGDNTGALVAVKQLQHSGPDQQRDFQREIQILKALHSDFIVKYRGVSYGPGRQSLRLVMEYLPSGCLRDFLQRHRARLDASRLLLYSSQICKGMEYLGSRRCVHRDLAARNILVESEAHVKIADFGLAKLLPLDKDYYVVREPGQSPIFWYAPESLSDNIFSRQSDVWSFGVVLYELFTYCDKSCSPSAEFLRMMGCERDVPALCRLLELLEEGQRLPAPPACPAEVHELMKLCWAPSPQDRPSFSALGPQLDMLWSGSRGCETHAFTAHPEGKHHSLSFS

Insulin receptor = Insulin receptor (Homo sapiens, UniProt P06213); assay: Inhibition of INS
[3] = target: RAC-alpha serine/threonine-protein kinase (Homo sapiens, UniProt P31749); assay: Inhibition of AKT1
Chain of RAC-alpha serine/threonine-protein kinase (P31749 whole entry): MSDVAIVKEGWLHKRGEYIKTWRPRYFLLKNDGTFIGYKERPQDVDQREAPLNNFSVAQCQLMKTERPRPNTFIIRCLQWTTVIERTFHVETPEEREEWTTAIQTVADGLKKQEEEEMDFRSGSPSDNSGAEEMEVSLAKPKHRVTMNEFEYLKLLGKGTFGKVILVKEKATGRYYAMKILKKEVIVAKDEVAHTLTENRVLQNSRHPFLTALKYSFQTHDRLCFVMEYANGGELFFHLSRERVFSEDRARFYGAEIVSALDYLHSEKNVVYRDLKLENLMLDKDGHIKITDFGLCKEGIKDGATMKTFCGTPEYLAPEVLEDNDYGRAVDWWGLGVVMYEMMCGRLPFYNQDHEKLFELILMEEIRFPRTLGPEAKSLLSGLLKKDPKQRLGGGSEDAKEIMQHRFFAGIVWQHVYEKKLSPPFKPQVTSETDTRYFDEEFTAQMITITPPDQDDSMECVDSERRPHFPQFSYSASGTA

[4] = target: T3, Serine/threonine-protein kinase Sgk1 (Homo sapiens, UniProt O00141); assay: Inhibition of SGK1
T3 sequence (O00141 whole entry): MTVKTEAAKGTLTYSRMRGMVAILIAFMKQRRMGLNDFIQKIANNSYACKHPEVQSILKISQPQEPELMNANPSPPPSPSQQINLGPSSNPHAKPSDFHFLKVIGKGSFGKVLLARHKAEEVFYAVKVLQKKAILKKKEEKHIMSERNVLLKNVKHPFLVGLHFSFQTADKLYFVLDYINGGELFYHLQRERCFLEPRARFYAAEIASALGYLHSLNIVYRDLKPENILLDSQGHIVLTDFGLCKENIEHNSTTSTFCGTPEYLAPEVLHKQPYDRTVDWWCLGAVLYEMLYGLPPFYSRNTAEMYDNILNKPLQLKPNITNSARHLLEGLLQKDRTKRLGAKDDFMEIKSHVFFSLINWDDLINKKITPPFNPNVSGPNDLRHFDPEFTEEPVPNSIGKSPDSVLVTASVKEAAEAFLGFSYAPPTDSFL

Aurora kinase A = target: T4, Aurora kinase A (Homo sapiens, UniProt O14965); assay: Inhibition of Aurora A
T4 sequence (O14965 whole entry): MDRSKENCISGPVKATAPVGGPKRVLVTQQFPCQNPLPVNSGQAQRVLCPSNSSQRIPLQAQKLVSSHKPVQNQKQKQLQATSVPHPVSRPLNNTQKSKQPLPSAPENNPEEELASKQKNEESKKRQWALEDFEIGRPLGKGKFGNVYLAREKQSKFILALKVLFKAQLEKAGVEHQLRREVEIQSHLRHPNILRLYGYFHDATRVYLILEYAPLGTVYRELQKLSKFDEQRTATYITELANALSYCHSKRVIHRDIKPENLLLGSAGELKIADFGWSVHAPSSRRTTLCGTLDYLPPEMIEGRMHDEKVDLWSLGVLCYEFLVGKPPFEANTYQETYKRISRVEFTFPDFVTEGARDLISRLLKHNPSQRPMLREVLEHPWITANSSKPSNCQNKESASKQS

[5] = target: T5, Inhibitor of nuclear factor kappa-B kinase subunit alpha (Homo sapiens, UniProt O15111); assay: Inhibition of IKK1
T5 sequence (O15111 whole entry): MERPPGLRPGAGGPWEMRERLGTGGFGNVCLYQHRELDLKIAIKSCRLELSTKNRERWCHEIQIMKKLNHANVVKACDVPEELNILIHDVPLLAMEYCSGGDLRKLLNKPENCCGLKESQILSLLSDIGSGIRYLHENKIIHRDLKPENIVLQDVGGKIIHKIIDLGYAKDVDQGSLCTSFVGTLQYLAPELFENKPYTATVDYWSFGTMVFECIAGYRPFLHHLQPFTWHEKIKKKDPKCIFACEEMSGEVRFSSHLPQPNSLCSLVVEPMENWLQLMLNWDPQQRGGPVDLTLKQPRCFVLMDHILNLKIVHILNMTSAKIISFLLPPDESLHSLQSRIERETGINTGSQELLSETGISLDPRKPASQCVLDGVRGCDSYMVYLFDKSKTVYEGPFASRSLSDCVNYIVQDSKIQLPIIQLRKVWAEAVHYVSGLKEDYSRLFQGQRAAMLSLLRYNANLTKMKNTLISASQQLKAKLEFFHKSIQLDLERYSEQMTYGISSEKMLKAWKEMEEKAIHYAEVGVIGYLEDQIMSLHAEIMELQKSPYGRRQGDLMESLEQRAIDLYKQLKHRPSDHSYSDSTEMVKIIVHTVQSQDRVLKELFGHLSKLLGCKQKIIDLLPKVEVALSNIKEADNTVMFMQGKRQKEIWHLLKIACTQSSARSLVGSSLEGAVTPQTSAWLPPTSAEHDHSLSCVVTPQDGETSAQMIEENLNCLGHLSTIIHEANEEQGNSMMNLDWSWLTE

[6] = target: Cyclin-dependent kinase 2 (Homo sapiens, UniProt P24941); assay: Inhibition of CDK2
[7] = target: T6, Serine/threonine-protein kinase Chk1 (Homo sapiens, UniProt O14757); assay: Inhibition of CHK1
T6 sequence (O14757 whole entry): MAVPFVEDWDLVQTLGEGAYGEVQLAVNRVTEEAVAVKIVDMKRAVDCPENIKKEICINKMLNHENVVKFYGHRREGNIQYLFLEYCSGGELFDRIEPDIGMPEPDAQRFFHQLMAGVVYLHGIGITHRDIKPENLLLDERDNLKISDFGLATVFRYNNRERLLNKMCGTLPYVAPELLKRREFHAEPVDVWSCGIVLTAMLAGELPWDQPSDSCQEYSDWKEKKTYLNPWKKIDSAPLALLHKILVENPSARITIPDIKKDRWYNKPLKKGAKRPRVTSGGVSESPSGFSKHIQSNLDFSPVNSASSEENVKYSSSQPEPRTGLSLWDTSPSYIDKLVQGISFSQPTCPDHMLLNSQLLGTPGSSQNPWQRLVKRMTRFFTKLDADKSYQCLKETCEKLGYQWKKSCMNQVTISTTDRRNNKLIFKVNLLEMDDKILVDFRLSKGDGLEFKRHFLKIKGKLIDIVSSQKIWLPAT

[8] = target: Phosphatidylinositol 4,5-bisphosphate 3-kinase catalytic subunit alpha isoform (Homo sapiens, UniProt P42336); assay: Inhibition of PI3Kalpha
Chain of Phosphatidylinositol 4,5-bisphosphate 3-kinase catalytic subunit alpha isoform (P42336 whole entry, canonical isoform): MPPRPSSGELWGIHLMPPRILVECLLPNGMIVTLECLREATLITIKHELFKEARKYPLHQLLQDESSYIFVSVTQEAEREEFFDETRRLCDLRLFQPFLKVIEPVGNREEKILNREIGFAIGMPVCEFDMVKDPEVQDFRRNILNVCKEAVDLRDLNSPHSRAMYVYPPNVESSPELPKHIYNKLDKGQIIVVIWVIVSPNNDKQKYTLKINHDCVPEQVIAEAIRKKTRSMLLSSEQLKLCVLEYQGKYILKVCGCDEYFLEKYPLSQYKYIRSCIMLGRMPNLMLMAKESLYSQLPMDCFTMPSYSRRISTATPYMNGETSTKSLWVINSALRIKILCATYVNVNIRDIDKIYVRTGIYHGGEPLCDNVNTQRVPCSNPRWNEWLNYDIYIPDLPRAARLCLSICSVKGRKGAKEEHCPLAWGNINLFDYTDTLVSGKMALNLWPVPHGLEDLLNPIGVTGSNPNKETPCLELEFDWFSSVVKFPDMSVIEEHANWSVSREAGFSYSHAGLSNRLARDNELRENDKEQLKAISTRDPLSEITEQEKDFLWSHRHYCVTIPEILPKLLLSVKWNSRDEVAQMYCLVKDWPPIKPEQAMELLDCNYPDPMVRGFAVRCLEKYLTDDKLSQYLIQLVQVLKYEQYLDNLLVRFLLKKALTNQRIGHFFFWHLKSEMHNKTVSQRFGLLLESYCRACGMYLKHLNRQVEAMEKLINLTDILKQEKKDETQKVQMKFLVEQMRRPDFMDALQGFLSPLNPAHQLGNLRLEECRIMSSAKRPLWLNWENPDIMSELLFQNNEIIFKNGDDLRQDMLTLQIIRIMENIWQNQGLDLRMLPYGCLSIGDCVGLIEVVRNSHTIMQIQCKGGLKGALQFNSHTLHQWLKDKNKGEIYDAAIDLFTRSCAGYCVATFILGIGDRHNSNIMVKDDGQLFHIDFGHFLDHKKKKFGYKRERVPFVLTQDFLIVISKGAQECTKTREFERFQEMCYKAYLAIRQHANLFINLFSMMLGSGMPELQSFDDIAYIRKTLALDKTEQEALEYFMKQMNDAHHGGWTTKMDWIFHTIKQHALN

[9] = target: Ribosomal protein S6 kinase beta-1 (Homo sapiens, UniProt P23443); assay: Inhibition of p70S6K
Chain of Ribosomal protein S6 kinase beta-1 (P23443 whole entry): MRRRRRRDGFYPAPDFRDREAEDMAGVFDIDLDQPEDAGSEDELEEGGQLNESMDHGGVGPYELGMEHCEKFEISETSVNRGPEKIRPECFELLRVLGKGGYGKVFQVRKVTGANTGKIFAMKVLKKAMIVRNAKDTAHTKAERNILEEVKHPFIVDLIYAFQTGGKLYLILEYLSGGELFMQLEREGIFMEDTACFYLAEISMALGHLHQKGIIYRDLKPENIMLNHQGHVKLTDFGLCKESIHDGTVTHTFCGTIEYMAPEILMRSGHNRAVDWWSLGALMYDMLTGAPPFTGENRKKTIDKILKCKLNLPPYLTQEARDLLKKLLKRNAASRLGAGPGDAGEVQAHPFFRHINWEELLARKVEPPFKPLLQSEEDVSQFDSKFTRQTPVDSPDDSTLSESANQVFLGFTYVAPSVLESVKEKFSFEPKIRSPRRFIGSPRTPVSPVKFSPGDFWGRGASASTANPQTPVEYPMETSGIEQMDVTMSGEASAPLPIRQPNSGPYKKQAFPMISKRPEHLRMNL

[10] = target: Vascular endothelial growth factor receptor 2 (Homo sapiens, UniProt P35968); assay: Inhibition of VEGFR2
Chain of Vascular endothelial growth factor receptor 2 (P35968 whole entry): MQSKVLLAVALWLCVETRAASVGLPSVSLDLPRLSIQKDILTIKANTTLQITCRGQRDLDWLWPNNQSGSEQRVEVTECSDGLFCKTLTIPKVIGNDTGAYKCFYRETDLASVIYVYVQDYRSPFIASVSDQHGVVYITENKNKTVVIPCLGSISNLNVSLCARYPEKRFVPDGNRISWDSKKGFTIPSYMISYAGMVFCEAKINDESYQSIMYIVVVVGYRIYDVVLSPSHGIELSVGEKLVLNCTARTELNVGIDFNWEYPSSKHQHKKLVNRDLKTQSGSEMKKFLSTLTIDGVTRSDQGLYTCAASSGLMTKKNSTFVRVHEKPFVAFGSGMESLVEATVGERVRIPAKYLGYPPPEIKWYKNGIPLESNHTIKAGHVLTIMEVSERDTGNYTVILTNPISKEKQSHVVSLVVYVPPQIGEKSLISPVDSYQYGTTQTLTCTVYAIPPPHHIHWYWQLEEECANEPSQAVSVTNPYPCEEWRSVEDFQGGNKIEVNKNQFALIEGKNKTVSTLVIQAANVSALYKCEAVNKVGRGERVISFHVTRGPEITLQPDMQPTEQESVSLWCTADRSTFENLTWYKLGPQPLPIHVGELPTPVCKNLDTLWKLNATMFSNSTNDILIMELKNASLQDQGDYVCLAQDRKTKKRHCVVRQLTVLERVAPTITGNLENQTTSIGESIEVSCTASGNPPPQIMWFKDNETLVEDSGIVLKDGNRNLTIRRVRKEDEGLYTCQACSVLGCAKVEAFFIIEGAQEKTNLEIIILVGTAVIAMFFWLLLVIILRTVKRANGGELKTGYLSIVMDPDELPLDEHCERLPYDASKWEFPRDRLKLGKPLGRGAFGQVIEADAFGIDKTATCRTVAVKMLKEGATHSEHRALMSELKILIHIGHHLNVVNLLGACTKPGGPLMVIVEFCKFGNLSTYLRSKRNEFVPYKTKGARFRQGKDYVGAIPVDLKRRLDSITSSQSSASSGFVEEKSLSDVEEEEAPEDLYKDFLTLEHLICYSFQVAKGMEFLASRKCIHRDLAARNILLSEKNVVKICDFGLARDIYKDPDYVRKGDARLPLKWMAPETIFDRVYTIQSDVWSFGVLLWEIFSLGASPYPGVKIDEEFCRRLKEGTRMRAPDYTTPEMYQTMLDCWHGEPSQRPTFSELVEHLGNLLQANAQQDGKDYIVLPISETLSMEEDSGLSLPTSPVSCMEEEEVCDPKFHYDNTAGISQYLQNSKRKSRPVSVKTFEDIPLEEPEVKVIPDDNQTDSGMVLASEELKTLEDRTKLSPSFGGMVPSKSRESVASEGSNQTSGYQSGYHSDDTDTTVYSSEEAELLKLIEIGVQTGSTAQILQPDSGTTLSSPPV

[11] = target: T1, 3-phosphoinositide-dependent protein kinase 1; assay: Inhibition of human PDK1 preincubated with substrate biotinylated PDKtide for 30 mins measured after 4 hrs by Scintillation proximity assay
[12] = target: T7, Mitogen-activated protein kinase kinase kinase 5 (Homo sapiens, UniProt Q99683); assay: Inhibition of ASK1
T7 sequence (Q99683 whole entry): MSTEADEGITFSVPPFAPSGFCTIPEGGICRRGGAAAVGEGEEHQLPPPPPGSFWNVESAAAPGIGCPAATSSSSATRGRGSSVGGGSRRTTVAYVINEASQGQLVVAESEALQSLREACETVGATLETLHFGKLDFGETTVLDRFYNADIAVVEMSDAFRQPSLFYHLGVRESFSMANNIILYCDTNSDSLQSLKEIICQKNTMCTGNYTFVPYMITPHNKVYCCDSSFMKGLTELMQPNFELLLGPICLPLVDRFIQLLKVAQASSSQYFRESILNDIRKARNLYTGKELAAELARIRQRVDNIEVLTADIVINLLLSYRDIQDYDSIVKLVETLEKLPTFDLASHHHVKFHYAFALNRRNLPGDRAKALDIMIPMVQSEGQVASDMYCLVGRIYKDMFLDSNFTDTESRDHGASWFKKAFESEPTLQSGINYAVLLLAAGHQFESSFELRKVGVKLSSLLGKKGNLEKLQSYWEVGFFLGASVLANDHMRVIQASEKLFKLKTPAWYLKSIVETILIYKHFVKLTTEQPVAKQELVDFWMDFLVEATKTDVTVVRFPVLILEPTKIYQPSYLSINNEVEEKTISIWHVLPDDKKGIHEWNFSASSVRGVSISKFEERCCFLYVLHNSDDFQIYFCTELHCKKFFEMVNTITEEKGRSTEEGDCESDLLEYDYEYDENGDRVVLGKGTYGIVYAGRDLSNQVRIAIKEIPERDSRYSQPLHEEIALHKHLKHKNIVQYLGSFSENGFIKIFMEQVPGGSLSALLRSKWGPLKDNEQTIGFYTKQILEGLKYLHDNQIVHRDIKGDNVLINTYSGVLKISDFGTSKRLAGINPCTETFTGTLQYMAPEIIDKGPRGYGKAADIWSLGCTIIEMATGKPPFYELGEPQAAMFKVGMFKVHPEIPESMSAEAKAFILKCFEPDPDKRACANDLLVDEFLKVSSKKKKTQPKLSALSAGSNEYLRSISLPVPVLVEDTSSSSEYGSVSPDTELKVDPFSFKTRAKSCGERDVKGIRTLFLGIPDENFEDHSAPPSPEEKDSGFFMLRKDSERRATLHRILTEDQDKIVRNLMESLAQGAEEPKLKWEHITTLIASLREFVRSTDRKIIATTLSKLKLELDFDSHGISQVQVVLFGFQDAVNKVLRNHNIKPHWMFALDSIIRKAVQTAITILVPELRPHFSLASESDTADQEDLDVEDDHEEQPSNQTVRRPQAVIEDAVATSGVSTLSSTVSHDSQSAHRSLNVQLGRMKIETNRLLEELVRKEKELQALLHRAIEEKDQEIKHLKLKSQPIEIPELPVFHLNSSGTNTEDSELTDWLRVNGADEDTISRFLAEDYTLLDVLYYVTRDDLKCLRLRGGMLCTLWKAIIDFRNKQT

[13] = target: Mitogen-activated protein kinase 8 (Homo sapiens, UniProt P45983); assay: Inhibition of JNK1
[14] = target: Insulin-like growth factor 1 receptor (Homo sapiens, UniProt P08069); assay: Inhibition of IGF1R
Chain of Insulin-like growth factor 1 receptor (P08069 31-736 limits assumed): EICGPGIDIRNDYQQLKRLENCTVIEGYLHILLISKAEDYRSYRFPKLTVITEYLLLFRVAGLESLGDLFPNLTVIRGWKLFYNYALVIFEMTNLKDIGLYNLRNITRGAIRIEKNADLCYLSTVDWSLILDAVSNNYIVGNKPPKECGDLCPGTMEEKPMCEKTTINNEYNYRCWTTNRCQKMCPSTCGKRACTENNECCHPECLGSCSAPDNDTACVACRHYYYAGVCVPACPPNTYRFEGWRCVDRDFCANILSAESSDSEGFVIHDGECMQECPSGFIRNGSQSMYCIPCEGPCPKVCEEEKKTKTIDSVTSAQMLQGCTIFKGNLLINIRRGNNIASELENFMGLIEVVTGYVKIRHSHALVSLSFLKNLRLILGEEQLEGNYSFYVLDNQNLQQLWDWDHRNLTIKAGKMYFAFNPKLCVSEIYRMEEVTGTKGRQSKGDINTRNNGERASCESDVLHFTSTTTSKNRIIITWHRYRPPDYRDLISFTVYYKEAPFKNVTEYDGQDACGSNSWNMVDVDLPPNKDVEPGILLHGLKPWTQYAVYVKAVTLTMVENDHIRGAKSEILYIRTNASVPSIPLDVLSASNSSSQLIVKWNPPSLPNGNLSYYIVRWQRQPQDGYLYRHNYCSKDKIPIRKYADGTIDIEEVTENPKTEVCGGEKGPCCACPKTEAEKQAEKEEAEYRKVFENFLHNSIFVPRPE
Chain of Insulin-like growth factor 1 receptor (P08069 741-1367 limits assumed): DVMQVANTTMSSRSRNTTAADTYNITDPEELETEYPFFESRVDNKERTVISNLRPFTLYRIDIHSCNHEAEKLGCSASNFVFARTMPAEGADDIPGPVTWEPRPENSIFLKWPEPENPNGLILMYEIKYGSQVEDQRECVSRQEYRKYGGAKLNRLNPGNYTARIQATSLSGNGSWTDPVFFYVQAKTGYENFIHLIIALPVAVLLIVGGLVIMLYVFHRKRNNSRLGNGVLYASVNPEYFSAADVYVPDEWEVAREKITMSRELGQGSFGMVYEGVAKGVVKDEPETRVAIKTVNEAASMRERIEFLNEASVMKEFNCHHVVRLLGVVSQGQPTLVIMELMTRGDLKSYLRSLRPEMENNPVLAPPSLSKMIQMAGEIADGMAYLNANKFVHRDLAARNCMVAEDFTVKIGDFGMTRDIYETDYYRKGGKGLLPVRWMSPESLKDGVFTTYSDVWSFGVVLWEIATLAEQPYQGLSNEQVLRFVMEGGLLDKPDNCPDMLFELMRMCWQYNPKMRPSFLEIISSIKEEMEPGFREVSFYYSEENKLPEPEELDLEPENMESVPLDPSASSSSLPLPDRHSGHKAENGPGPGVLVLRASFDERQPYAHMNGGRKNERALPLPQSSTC

Work on `c1cc(-c2cc[nH]n2)ccn1` yielded an IC50 [1] of 326 µM.

`NC(=O)c1[nH]ncc1N` gave an IC50 [1] of 200 µM.

For `NC(=O)c1cccc2cc[nH]c12`, the IC50 [1] was 97.5 µM.

`Nc1cc(-c2ccco2)n[nH]1` was tested, and the IC50 [1] was 313 µM.

Molecule `Nc1nccc(-c2ccc3c(N)n[nH]c3c2)n1` has an IC50 [2] of 0.99 µM, an IC50 (Insulin receptor) greater than 10 µM and an IC50 [3] greater than 10 µM. For the same molecule, the IC50 [4] was greater than 10 µM, the IC50 (Aurora kinase A) was 0.39 µM and the IC50 [5] was 0.1 µM. For the same molecule, the IC50 [6] was 0.28 µM, the IC50 [7] was greater than 10 µM and the IC50 [8] was greater than 10 µM. For the same molecule, the IC50 [9] was 6.34 µM, the IC50 [10] was 0.84 µM and the IC50 [11] was 0.37 µM. It also gave an IC50 [12] of 5.69 µM, an IC50 [13] greater than 10 µM and an IC50 [14] greater than 10 µM.

For `Nc1cc(-c2ccc3c(N)n[nH]c3c2)ccn1`, the IC50 [11] was 7.28 µM.

In the case of `Nc1nc(N)c2[nH]cnc2n1` [2,6-DIAMINOPURINE], the IC50 [1] is reported as 50.8 µM.

`c1ccc(-c2nccs2)cc1` [2-PHENYLTHIAZOLE] gave an IC50 [1] of 95.1 µM.

`Nc1cc2ccccc2cn1` [ISOQUINOLIN-3-AMINE] gave an IC50 [1] of 376 µM.
